Data as given in the supplement of paper PMC10627819.

Key:
[1] = test system: S. aureus Newman; test: fitness (endpoint OD595 vs no drug) (fraction); higher = more growth
Procedure, shortened: (§1)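 In 384-well plates at 37 °C, cultures began at OD595 0.01 in 30 µl, with 55 µl used for S. pneumoniae. OD595 readings every 30 min for 14 h were corrected by the first reading. Fitness divides the stationary-phase transition optical density by the robust mean of no-drug control wells. The result is capped at 1.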

[2] = test system: B. subtilis 168; test: as above
Procedure, shortened: as §1
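Also: OD595 on entry to stationary phase over no-drug wells; at most 1.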

Cc1ncc([N+](=O)[O-])n1CCO [Metronidazole] + CC1(C)S[C@@H]2[C@H](NC(=O)Cc3ccccc3)C(=O)N2[C@H]1C(=O)O [Penicillin G]
fitness, [1]
Details	first compound 0.625 µg/mL	first compound 0.781 µg/mL	first compound 1.25 µg/mL	first compound 1.562 µg/mL	first compound 2.5 µg/mL	first compound 3.124 µg/mL
partner 0.0195 µg/mL	0.924	0.836	0.799	0.85	0.826	0.829
partner 0.039 µg/mL	0.9	0.975	0.882	0.932	0.913	0.947
partner 0.078 µg/mL	0.812	0.982	0.858	0.959	0.807	0.946

CO/N=C(\C(=O)N[C@@H]1C(=O)N2C(C(=O)O)=C(COC(C)=O)CS[C@H]12)c1csc(N)n1 [Cefotaxime] + CC1(C)S[C@@H]2[C@H](NC(=O)Cc3ccccc3)C(=O)N2[C@H]1C(=O)O [Penicillin G]
fitness, [1]
Details	first compound 0.078 µg/mL	first compound 0.156 µg/mL	first compound 0.312 µg/mL
partner 0.0195 µg/mL	0.677	0.506	0.297
partner 0.039 µg/mL	0.644	0.49	0.288
partner 0.078 µg/mL	0.693	0.541	0.301

fitness, [1], one replicate
Details	first compound 0.625 µg/mL	first compound 1.25 µg/mL	first compound 2.5 µg/mL
partner 0.0195 µg/mL	0.0231	0.0448	0.071
partner 0.039 µg/mL	0.0366	0.0335	0.0438
partner 0.078 µg/mL	0.0525	0.0319	0.0774

O=C(O)c1cn(C2CC2)c2cc(N3CCNCC3)c(F)cc2c1=O [Ciprofloxacin] + CO/N=C(\C(=O)N[C@@H]1C(=O)N2C(C(=O)O)=C(COC(N)=O)CS[C@H]12)c1ccco1 [Cefuroxime]
fitness, [2]
Details	first compound 0.0098 µg/mL	first compound 0.0195 µg/mL	first compound 0.039 µg/mL
partner 0.04875 µg/mL	0.632	0.391	0.042
partner 0.0975 µg/mL	–	0.212	0.0421
partner 0.195 µg/mL	0.317	0.0634	0.0359

fitness, one replicate
Details	partner 0.04875 µg/mL	partner 0.0975 µg/mL	partner 0.195 µg/mL	partner 0.39 µg/mL	partner 0.78 µg/mL	partner 1.562 µg/mL	partner 3.125 µg/mL	partner 6.25 µg/mL
[1], first compound 0.078 µg/mL	0.554	0.441	0.469	–	–	–	–	–
[1], first compound 0.156 µg/mL	0.0634	0.0619	0.0412	–	–	–	–	–
[1], first compound 0.312 µg/mL	0.0573	0.0666	0.061	–	–	–	–	–
[2], first compound 0.0098 µg/mL	–	–	–	0.266	0.224	0.24	0.179	0.0609
[2], first compound 0.0195 µg/mL	–	–	–	0.0291	0.0398	0.0343	0.0254	0.0167
[2], first compound 0.039 µg/mL	–	–	–	0.0168	0.0177	0.0261	0.0302	0.0254
